Activity calls are given as the source filed them.
Key:
[1] = target: T1, Replicative DNA helicase DnaB (Mycobacterium tuberculosis, UniProt P9WMR3); experiment: DnaB intein splicing inhibitors, dose response, biochemical, cell-free fluorescence (AID 449749); format: functional
T1 sequence (P9WMR3 whole entry): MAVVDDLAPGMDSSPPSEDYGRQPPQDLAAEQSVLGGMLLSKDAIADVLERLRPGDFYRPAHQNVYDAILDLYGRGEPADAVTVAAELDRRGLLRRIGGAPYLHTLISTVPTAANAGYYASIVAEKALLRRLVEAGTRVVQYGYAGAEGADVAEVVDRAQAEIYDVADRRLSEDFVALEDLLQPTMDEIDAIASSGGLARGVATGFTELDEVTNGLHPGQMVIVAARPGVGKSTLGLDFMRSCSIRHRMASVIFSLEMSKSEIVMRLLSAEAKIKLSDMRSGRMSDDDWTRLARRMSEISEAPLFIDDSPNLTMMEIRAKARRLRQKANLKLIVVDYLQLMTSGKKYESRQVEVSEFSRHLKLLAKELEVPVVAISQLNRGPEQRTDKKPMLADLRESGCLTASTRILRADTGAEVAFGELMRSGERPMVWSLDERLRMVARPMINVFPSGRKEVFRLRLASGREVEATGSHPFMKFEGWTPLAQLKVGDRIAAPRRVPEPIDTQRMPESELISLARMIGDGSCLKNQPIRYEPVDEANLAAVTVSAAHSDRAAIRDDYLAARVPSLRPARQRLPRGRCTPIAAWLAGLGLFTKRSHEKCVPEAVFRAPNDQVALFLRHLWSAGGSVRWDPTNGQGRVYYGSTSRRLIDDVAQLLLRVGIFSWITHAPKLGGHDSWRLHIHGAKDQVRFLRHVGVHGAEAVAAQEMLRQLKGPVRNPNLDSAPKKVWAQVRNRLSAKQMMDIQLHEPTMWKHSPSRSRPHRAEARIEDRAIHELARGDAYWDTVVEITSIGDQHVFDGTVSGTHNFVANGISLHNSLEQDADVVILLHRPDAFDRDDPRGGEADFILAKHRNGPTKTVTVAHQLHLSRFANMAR

[2] = target: T2, Mannose-6-phosphate isomerase (Homo sapiens, UniProt P34949); experiment: MPI enzyme activity inhibition – biochemical, fluorescence intensity, coupled assay, primary screen (AID 1209)
T2 sequence (P34949 whole entry): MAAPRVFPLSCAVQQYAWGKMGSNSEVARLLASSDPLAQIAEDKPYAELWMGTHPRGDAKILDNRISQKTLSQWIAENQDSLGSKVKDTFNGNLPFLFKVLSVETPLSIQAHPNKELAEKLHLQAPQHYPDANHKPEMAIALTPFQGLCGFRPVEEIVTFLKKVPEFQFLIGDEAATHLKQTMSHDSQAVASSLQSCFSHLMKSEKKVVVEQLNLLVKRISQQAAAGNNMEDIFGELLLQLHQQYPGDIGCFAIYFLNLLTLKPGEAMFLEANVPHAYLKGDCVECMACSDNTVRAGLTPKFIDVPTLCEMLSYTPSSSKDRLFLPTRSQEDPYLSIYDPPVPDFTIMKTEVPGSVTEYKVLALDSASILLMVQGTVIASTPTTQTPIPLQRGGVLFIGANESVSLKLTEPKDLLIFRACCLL

Caspase-3 = target: T3, Caspase-3 (Homo sapiens, UniProt P42574); experiment: activation of caspase-3 zymogen – biochemical, absorbance, dose response (AID 489014)
T3 sequence (P42574 whole entry): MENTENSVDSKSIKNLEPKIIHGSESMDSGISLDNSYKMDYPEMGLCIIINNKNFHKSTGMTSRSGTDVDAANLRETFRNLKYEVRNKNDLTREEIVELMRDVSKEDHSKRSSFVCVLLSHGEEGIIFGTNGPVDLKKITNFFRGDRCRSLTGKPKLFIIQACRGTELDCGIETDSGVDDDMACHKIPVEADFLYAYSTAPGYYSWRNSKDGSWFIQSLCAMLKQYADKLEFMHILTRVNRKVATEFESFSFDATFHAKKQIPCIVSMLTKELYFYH

[3] = target: Hepatocyte growth factor receptor (Homo sapiens, UniProt P08581); format: functional;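 also: kinase panel profiling across the kinome, with MET as the panel member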
[4] = target: Serine/threonine-protein kinase PLK3 (Homo sapiens, UniProt Q9H4B4); format: functional
Serine/threonine-protein kinase PLK3, sequence (Q9H4B4 whole entry): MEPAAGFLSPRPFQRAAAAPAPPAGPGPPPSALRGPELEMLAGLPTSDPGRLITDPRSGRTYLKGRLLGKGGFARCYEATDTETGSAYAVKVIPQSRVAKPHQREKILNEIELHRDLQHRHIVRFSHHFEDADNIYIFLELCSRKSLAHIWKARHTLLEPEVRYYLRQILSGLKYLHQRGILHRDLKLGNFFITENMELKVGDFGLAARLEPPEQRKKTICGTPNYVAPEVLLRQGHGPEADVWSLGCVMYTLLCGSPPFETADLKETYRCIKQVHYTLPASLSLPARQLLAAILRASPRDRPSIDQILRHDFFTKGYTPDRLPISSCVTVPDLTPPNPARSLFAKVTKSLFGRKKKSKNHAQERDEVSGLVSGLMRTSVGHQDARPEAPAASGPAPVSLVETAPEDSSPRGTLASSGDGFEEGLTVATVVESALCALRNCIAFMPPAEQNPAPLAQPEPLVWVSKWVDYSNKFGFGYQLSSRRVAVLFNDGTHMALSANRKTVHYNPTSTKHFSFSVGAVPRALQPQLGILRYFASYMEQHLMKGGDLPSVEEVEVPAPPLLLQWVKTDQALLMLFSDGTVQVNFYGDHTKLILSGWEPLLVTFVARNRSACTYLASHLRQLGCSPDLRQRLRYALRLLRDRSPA

[5] = target: Protein kinase C zeta type (Homo sapiens, UniProt Q05513); format: functional;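 also: measured as one member of a broad kinase profiling panel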
Protein kinase C zeta type, sequence (Q05513 whole entry): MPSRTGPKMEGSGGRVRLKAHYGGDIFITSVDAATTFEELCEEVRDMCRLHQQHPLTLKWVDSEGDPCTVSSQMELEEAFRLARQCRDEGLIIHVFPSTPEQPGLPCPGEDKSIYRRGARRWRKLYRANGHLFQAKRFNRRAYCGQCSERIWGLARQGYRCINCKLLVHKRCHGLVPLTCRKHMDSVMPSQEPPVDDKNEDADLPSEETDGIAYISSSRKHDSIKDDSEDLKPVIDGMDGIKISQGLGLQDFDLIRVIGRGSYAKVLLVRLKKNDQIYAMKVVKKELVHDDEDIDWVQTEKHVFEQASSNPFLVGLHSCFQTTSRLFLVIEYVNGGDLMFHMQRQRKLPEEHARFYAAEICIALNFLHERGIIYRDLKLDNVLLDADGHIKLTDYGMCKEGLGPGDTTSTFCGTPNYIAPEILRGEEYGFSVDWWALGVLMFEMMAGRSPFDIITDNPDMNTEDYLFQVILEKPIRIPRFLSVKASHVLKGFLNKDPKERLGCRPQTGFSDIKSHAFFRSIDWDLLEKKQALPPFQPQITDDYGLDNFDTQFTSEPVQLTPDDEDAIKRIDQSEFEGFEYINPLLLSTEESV

[6] = target: Receptor-type tyrosine-protein kinase FLT3 (Homo sapiens, UniProt P36888); format: functional;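 also: FLT3 was tested as one member of a kinome-wide kinase panel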
Receptor-type tyrosine-protein kinase FLT3, sequence (P36888 whole entry): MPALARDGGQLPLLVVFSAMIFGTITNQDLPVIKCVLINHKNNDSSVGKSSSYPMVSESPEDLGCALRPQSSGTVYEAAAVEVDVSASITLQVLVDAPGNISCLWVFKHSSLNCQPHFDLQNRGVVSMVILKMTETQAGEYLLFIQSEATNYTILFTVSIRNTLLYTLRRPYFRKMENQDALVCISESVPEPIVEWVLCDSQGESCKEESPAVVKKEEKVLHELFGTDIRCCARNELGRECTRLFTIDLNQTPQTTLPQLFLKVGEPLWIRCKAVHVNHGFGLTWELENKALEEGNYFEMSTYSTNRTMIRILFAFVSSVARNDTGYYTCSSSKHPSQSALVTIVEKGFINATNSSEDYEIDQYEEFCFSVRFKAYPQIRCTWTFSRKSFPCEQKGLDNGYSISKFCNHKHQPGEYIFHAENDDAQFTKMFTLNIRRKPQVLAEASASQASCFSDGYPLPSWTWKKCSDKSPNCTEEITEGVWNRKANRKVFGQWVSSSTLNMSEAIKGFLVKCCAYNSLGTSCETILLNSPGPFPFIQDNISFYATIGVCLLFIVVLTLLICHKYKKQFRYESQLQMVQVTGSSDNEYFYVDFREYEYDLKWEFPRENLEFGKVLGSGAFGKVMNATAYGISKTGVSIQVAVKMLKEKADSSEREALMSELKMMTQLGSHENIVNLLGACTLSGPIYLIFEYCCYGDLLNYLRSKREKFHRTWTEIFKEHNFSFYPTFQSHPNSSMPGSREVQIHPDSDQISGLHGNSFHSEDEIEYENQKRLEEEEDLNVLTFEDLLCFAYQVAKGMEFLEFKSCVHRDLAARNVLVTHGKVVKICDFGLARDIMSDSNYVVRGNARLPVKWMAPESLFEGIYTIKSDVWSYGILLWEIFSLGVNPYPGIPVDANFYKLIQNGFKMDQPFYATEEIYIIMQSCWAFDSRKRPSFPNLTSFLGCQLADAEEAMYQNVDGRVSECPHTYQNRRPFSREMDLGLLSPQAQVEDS

[7] = target: Serine/threonine-protein kinase TBK1 (Homo sapiens, UniProt Q9UHD2); experiment: Navigating the Kinome. Panel member name: TBK1; format: functional
Serine/threonine-protein kinase TBK1, sequence (Q9UHD2 whole entry): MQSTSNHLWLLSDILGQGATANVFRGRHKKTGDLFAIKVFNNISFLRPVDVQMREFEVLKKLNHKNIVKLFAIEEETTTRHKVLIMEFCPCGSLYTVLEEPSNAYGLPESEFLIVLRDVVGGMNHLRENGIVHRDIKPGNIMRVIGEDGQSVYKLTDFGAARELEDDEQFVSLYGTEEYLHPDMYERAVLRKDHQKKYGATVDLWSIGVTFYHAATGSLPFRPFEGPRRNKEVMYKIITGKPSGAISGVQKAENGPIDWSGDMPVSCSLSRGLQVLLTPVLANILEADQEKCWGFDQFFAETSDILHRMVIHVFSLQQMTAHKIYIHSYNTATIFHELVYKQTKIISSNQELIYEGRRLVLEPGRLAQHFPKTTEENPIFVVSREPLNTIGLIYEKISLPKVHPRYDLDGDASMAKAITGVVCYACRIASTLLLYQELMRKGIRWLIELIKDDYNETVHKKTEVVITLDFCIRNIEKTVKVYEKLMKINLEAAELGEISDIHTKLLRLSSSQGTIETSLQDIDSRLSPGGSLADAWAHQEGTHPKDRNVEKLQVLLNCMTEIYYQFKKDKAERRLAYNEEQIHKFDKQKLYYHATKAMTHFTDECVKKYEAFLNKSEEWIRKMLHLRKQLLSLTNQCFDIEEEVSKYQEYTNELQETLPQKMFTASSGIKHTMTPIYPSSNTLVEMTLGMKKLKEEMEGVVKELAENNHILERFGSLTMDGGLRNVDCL

[8] = target: MAP kinase-activated protein kinase 3 (Homo sapiens, UniProt Q16644); format: functional;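 also: value comes from a kinome-wide profiling panel in which MAPKAPK3 is one of the panel members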
[9] = target: Ribosomal protein S6 kinase beta-1 (Homo sapiens, UniProt P23443); format: functional;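 also: measured as one member of a kinome-wide profiling panel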
Ribosomal protein S6 kinase beta-1, sequence (P23443 whole entry): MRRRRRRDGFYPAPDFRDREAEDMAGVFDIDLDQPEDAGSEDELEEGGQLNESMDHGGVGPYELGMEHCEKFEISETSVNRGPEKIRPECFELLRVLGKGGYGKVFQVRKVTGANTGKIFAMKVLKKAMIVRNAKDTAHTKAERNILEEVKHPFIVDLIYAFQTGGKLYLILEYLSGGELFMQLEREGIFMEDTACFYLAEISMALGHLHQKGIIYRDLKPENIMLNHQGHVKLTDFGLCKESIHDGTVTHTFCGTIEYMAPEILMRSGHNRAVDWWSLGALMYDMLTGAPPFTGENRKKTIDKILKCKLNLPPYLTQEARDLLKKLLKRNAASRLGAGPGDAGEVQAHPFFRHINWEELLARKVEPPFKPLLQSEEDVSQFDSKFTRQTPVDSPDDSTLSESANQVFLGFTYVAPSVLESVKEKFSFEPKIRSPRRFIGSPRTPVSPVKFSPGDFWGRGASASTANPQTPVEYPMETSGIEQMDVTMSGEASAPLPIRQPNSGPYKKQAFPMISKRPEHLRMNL

[10] = target: Fibroblast growth factor receptor 1 (Homo sapiens, UniProt P11362); format: functional
[11] = target: Mitogen-activated protein kinase kinase kinase kinase 2 (Homo sapiens, UniProt Q12851); format: functional;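 also: measured as one member of a kinome-wide kinase panel, with MAP4K2 as the panel entry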
[12] = target: Cell division cycle 7-related protein kinase (Homo sapiens, UniProt O00311); format: functional;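 also: value obtained from a kinome-wide kinase panel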
Cell division cycle 7-related protein kinase, sequence (O00311 whole entry): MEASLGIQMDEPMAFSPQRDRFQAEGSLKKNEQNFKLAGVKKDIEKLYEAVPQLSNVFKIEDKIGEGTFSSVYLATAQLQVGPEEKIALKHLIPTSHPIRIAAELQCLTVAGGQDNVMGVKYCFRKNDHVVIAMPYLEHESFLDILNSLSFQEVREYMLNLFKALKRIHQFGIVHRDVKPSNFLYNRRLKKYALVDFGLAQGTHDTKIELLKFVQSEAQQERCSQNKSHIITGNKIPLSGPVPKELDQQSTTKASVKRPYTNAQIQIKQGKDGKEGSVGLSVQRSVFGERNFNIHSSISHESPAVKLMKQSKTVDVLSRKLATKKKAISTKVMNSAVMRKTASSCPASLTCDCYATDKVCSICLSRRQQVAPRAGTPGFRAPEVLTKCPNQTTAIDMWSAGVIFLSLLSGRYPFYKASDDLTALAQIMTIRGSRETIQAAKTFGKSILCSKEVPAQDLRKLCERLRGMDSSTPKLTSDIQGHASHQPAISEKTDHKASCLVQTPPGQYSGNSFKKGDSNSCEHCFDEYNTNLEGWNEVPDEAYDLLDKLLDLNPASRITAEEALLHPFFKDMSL

[13] = target: Tyrosine-protein kinase ABL1 (Homo sapiens, UniProt P00519); format: functional
[14] = target: Receptor tyrosine-protein kinase erbB-4 (Homo sapiens, UniProt Q15303); format: functional;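 also: ERBB4 member of a kinome-wide kinase profiling panel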
[15] = target: Serine/threonine-protein kinase 17A (Homo sapiens, UniProt Q9UEE5); format: functional
Serine/threonine-protein kinase 17A, sequence (Q9UEE5 whole entry): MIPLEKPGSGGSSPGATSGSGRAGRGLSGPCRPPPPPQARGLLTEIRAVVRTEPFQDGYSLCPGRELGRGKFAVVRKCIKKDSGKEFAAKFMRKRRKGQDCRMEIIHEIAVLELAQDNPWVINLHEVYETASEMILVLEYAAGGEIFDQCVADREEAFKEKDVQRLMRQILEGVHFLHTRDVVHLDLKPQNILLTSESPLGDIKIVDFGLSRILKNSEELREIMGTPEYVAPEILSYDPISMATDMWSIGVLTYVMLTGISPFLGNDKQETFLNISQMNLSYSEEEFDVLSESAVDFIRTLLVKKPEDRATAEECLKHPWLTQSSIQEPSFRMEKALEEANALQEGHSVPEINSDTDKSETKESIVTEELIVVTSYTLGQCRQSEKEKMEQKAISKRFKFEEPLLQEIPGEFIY

[16] = target: Cyclin-dependent kinase 8 (Homo sapiens, UniProt P49336); experiment: Navigating the Kinome. Panel member name: CDK8; format: functional
[17] = target: Dual specificity mitogen-activated protein kinase kinase 1 (Homo sapiens, UniProt Q02750); experiment: Navigating the Kinome. Panel member name: MAP2K1; format: functional
[18] = target: Serine/threonine-protein kinase PLK1 (Homo sapiens, UniProt P53350); format: functional;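 also: PLK1 measured as one member of a kinome-wide profiling panel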
[19] = target: Serine/threonine-protein kinase PAK 1 (Homo sapiens, UniProt Q13153); format: functional
Serine/threonine-protein kinase PAK 1, sequence (Q13153 whole entry): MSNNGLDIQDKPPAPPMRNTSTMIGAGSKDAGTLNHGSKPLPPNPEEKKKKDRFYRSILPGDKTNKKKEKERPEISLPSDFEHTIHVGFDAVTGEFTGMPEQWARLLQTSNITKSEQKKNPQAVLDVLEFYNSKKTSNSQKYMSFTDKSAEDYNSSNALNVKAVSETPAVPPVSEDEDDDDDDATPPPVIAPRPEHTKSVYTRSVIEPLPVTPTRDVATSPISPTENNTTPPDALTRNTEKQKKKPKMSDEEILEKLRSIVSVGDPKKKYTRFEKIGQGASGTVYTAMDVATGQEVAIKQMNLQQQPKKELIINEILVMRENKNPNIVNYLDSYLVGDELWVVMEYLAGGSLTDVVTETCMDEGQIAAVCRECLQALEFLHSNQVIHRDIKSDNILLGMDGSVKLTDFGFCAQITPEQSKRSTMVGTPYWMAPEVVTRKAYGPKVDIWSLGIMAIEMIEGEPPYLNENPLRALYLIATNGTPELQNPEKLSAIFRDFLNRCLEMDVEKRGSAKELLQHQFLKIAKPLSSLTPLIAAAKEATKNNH

[20] = target: Calcium/calmodulin-dependent protein kinase type II subunit alpha (Homo sapiens, UniProt Q9UQM7); experiment: Navigating the Kinome. Panel member name: CAMK2A; format: functional
[21] = target: Tyrosine-protein kinase receptor TYRO3 (Homo sapiens, UniProt Q06418); format: functional;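 also: TYRO3 value obtained as one member of a kinome-wide profiling panel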
[22] = target: Mitogen-activated protein kinase kinase kinase kinase 5 (Homo sapiens, UniProt Q9Y4K4); format: functional;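 also: measured as one member of a kinome-spanning kinase panel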
[23] = target: Leucine-rich repeat serine/threonine-protein kinase 2 (Homo sapiens, UniProt Q5S007); format: functional;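 also: value from a broad kinome-wide panel profiling study in which LRRK2 was one of the kinases tested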

NS(=O)(=O)c1ccc(NC2=CC(=O)C(=O)c3ccccc32)cc1
AC50 [1]: 1.84 µM (active)

CC(C)N(C(=O)Nc1ccc2nsnc2c1)C(C)C
IC50 [2]: > 50 µM (not active)

O=C(N/N=C/c1ccc(O)cc1O)c1ccc(CN2C(=O)c3cccc4cccc2c34)cc1
EC50 (Caspase-3): > 85.3 µM (inactive)

Clc1cc(-c2c[nH]c3ncccc23)nc(NC2CCCCC2)n1
Ki [3]: > 3.16 µM (inactive) | Ki [4]: > 7.94 µM (inactive) | Ki [5]: > 7.94 µM (inactive) | Ki [6]: > 1 µM (inactive) | Ki [7]: > 3.16 µM (inactive) | Ki [8]: > 10 µM (inactive) | Ki [9]: 2.51 µM (active) | Ki [10]: > 3.98 µM (inactive) | Ki [11]: > 1.26 µM (inactive) | Ki [12]: 0.000501 µM (active) | Ki [13]: > 0.631 µM (inactive) | Ki [14]: > 3.98 µM (inactive) | Ki [15]: 1 µM (active) | Ki [16]: 0.00398 µM (active) | Ki [17]: 0.2 µM (active) | Ki [18]: 0.501 µM (active) | Ki [19]: > 10 µM (inactive) | Ki [20]: 3.16 µM (active) | Ki [21]: > 2.51 µM (inactive) | Ki [22]: > 2 µM (inactive) | Ki [23]: > 2.51 µM (inactive)

Reference: ChEMBL document CHEMBL1201862, “PubChem BioAssay data set” (2004)
